{"source": "patent US6780853B1", "about": "“Neuroactive steroids of the androstane and pregnane series” (priority 1995, dated 2004)", "key": {"[1]": {"target": "GABA receptor complex (GRC)", "assay": "[35S]TBPS binding in rat cerebral cortex P2 homogenate", "settings": "for IC50: concentration to inhibit 50% of control [35S]TBPS binding, 2 nM [35S]TBPS; for IMAX (maximum inhibition): maximum inhibition of [35S]TBPS binding", "source_text": "To those skilled in the art, it is known that the modulation of [^35S]t-butylbicyclophosphorothionate ([^35S]TBPS) binding is a measure of the potency and efficacy of drugs acting at the GRC, which drugs may be of potential therapeutic value in the treatment of stress, anxiety, and seizure disorders (Squires, R. F., et al., Mol, Pharmacol., 23:326 (1983); Lawrence, L. J., et al., Biochem. Biophys. Res. Comm., 123:1130-1137 (1984); Wood, et al., Pharmacol, Exp. Ther., 231:572-576 (1984)). Several experiments were performed previously to determine the nature of the modulation of [^35S]TBPS as affected by neuroactive steroids. […] Furthermore, these compounds have high potency and efficacy at the GRC, with stringent structural requirements for such activity.\nThe procedures for performing this assay are fully discussed in: (1) Gee, K. W. et al., European Journal of Pharmacology, 136:419-423 (1987)); and (2) Gee, et al., Molecular Pharmacology 30:218 (1986). These procedures were performed as follows:\nBrains from male Sprague-Dawley rats were removed immediately following sacrifice and the cerebral cortices dissected over ice. A P2 homogenate was prepared as previously described (Gee, et al., Molecular Pharmacology 30:218 (1986)). Briefly, the cortices were gently homogenized in 032 M sucrose followed by centrifugation at 1000×g for 10 minutes. The supernatant was collected and centrifuged at 9000×g for 20 minutes. The resultant P2 pellet was suspended as a 10% (original wet weight/volume) suspension in 50 mM Na/K phosphate buffer (pH 7.4) 200 mM NaCl to form the homogenate.\nOne hundred microliter […] aliquots of the P2 homogenate (0.5 milligrams (mg) protein) were incubated with 2 nanomolar (nM) [^35S]TBPS (70-110 curies/millimole; New England Nuclear, Boston, Mass.) in the presence or absence of the naturally occurring steroids or their synthetic derivatives to be tested. The tested compounds were dissolved in dimethylsulfoxide (Baker Chem. Co., Phillipsburg, N.J.) and added to the incubation mixture in 5 μL aliquots. The incubation mixture was brought to a final volume of 1 mL with buffer. Non-specific binding was defined as binding in the presence of […]. The effect and specificity of GABA (Sigma Chem. Co., St. Louis, Mo.) was evaluated by performing all assays in the presence of GABA plus (+)bicuculline (Sigma Chem. Co.). Incubations maintained at 25° C. for 90 minutes (steady state conditions) were terminated by rapid filtration through glass fiber filters (No. 32, Schleicher and Schuell, Keene, N.H.). Filter-bound radioactivity was quantitated by liquid scintillation spectrophotometry. Kinetic data and compound/[^35S]TBPS dose-response curves were analyzed by nonlinear regression using a computerized iterative procedure to obtain rate constants and IC50 (concentration of compound at which half-maximal inhibition of basal [^35S]TBPS binding occurs) values.\nVarious compounds were screened to determine their potential as modulators of [^35S]TBPS binding in vitro. These assays were performed in accordance with the above discussed procedures. Based on these assays, we have established the structure-activity requirements for their specific interaction at the GRC and their rank order potency and efficacy. Experimental data obtained in this assay for a number of 3α-hydroxypregnan-20-one derivatives is discussed in Gee, K. W. et al., European Journal of Pharmacology, 136:419-423 (1987) and in U.S. Pat. No. 5,232,917. Table 1 provides IC50 and maximum inhibition (IMAX) measurements for numerous compounds, including examples of compounds disclosed and claimed herein. IC50 is defined as concentration of compounds to inhibit 50% of control [^35S]TBPS binding. It is an indication of a compound's in vitro potency. Maximum inhibition is an indication of a compound's in vitro efficacy."}, "[2]": {"system": "time spent on the open-arms", "assay": "Elevated plus-maze test", "format": "in vivo, N.I.H. Swiss-Webster mice", "source_text": "The theoretical basis for the elevated plus-maze test is similar to that of the fight/dark transition test. As it was described previously by Pellow et al. J. Neurosci. Meth. 14:149-167 (1985)), the elevated plus-maze apparatus is designed to utilize the mice's natural aversion to open spaces. The apparatus consists of two open-arms and two enclosed-arms. The elevated plus-maze test allows for two measures of anxiety, the number of entries into the open-arms and the time spent on the open-arms, both expressed as a percentage of the total number of entries and time spent in/on both the open-arms and enclosed-arms.\nMale N.I.H Swiss-Webster mice (Harlan, Indianapolis, Ind.) weighing 15-20 g were housed four per cage in polyethylene cages with sawdust bedding. The colony room was environmentally controlled (22° C.) with a 12 hr light/dark cycle (0600-1800 hr). Food and water were available ad libitum, except during testing. The experiments were run from 0700-1500 hr and groups were counterbalanced for time of day effects. Mice were only administered drug or vehicle once.\nThe method used was previously described (Lister, Psychopharmacol. 92:180-185 (1987)). The apparatus included two open arms perpendicular to two enclosed arms elevated 50 cm from the floor. Each arm was 50 cm long and the walls of the enclosed arms were 40 cm tall. The maze was made completely of black plexiglass. Incandescent 200 W light bulbs were above each of the open arms to produce a strong contrast between the open arms and the enclosed arms.\n[…] Swiss-Webster mice were placed in the center of the plus-maze facing an open arm. During the 5 min test period, the number of entries onto the open arms and the enclosed arms, and the time spent in the open arms and enclosed arms were measured. All four paws had to be within an arm for the dependent variable to be measured. Therefore, the time spent in the center of the maze is not counted, so the total time spent in the open arms and the enclosed arms may not equal 5 min."}, "[3]": {"system": "metrazol induced convulsions", "assay": "Antimetrazol activity in mice", "format": "in vivo", "settings": "IP", "method": "Experiments were also performed to determine the physiological relevance of neuroactive steroid and GABA receptor interactions by assessing the ability of compounds of the present invention to prevent metrazol induced convulsions in mice. Mice were injected with various doses of the test compounds of the invention, 10 minutes prior to the injection of metrazol. The time to onset of myoclonus (presence of forelimb clonic activity) induced by metrazol was determined by observing each mouse for a period of 30 minutes. In control mice, metrazol (85 mg/kg) will induce convulsion in 95% of the animals.\nThe anticonvulsant tests are similar to that described above."}, "[4]": {"settings": "50% hpbcd, 10 mg/kg, 10 min before metrazol 85 mg/kg"}}, "note": "Counter-ions that a name gives are not always drawn."}
{"smiles": "CC(=O)c1ccc(C#CCO[C@H]2CC[C@H]3[C@@H]4CC[C@H]5C[C@](C)(O)CC[C@]5(C)[C@H]4CC[C@]23C)cc1", "note": "[17β-[3-(4-Acetylphenyl)-2-propynyloxy]-3α-hydroxy-3β-methyl-5α-androstane]", "values": [{"measurement": "IC50", "setting": "[1]", "result": 316, "unit": "nM"}, {"measurement": "IMAX (maximum inhibition)", "setting": "[1]", "result": 95, "unit": "%"}, {"measurement": "melting point", "result": "52 to 55", "unit": "°C"}]}
{"smiles": "COCC1(O)CCC2(C)C(CCC3C2CCC2(C)C(C(=O)CSc4ccc(N)cc4)CCC32)C1", "note": "(stereo not drawn) [21-(4′-aminophenylthio)-3α-hydroxy-3β-methoxymethyl-5α-pregnan-20-one]", "values": [{"measurement": "IC50", "setting": "[1]", "result": 127, "unit": "nM"}, {"measurement": "IMAX (maximum inhibition)", "setting": "[1]", "result": 89, "unit": "%"}, {"measurement": "melting point", "result": "150 to 156", "unit": "°C"}]}
{"smiles": "CC12CCC(O)CC1CCC1C2CCC2(C)C(C(=O)CSc3ncc[nH]3)CCC12", "note": "(stereo not drawn) [3α-Hydroxy-21-(imidazo-2-ylthio)-5β-pregnan-20-one]", "values": [{"measurement": "Plus-Maze (% Control), time spent on the open-arms", "setting": "[2]; IP, 50% hpbcd, 10 mg/kg", "result": 166, "unit": "% Control"}, {"measurement": "IC50", "setting": "[1]", "result": 184, "unit": "nM"}, {"measurement": "IMAX (maximum inhibition)", "setting": "[1]", "result": 80, "unit": "%"}, {"measurement": "% Protected", "setting": "[3]; [4]", "result": 6.25, "unit": "%"}]}
{"smiles": "C[C@]12CC[C@@H](O)C[C@H]1CC[C@@H]1[C@@H]2CC[C@]2(C)[C@@H](C(=O)CSc3ccccn3)CC[C@@H]12", "note": "[3α-Hydroxy-21-(pyrid-2-ylthio)-5β-pregnan-20-one]", "values": [{"measurement": "Plus-Maze (% Control), time spent on the open-arms", "setting": "[2]; IP, 50% hpbcd, 20 mg/kg", "result": 187, "unit": "% Control"}, {"measurement": "IC50", "setting": "[1]", "result": 90, "unit": "nM"}, {"measurement": "IMAX (maximum inhibition)", "setting": "[1]", "result": 66, "unit": "%"}, {"measurement": "% Protected", "setting": "[3]; 50% hpbcd, 20 mg/kg", "result": 12.5, "unit": "%"}]}
{"smiles": "C#CC1(O)CCC2(C)C(CCC3C2CCC2(C)C(C(=O)CSCCS(=O)(=O)O)CCC32)C1", "note": "(stereo not drawn) [3β-ethynyl-3α-hydroxy-21-thioethanesulfonate-5β-pregnan-20-one sodium salt]", "values": [{"measurement": "Plus-Maze (% Control), time spent on the open-arms", "setting": "[2]; IP, 50% hpbcd, 10 mg/kg", "result": 127, "unit": "% Control"}, {"measurement": "IC50", "setting": "[1]", "result": 607, "unit": "nM"}, {"measurement": "IMAX (maximum inhibition)", "setting": "[1]", "result": 93, "unit": "%"}, {"measurement": "% Protected", "setting": "[3]; [4]", "result": 0, "unit": "%"}]}
{"smiles": "C[C@]12CC[C@@H](O)C[C@H]1CC[C@@H]1[C@@H]2CC[C@]2(C)[C@@H](C(=O)COc3cccnc3)CC[C@@H]12", "note": "[3α-hydroxy-21-(pyrid-3-yl)oxy-5β-pregnan-20-one]", "values": [{"measurement": "IC50", "setting": "[1]", "result": 76, "unit": "nM"}, {"measurement": "IMAX (maximum inhibition)", "setting": "[1]", "result": 76, "unit": "%"}, {"measurement": "melting point", "result": "63 to 66", "unit": "°C"}]}
{"smiles": "CO[C@H]1CC[C@H]2[C@@H]3CC[C@@H]4C[C@H](OC(=O)C(C)C)CC[C@]4(C)[C@H]3CC[C@]12C", "values": [{"measurement": "melting point", "result": "82 to 87", "unit": "°C"}]}
{"smiles": "C[C@]12CC[C@@H](O)C[C@H]1CC[C@@H]1[C@@H]2CC[C@]2(C)[C@@H](C(=O)C[S+]([O-])c3ccncc3)CC[C@@H]12", "note": "(stereo partly drawn) [3α-Hydroxy-21-(pyrid-4-ylsulfinyl)-5β-pregnan-20-one]", "values": [{"measurement": "Plus-Maze (% Control), time spent on the open-arms", "setting": "[2]; IP, 50% hpbcd, 10 mg/kg", "result": 171, "unit": "% Control"}, {"measurement": "IC50", "setting": "[1]", "result": 235, "unit": "nM"}, {"measurement": "IMAX (maximum inhibition)", "setting": "[1]", "result": 73, "unit": "%"}, {"measurement": "% Protected", "setting": "[3]; [4]", "result": 25, "unit": "%"}]}
{"smiles": "COC1CCC2C3CCC4CC(O)(C#CCCOC(=O)CCC(=O)O)CCC4(C)C3CCC12C", "note": "(stereo not drawn) [3β-(4′-hydroxy-1′-butynyl)-3α-hydroxy-17β-methoxy-5β-androstane 4′-hemisuccinate sodium salt]", "values": [{"measurement": "Plus-Maze (% Control), time spent on the open-arms", "setting": "[2]; PO, water, 10 mg/kg", "result": 309, "unit": "% Control"}, {"measurement": "IC50", "setting": "[1]", "result": 108, "unit": "nM"}, {"measurement": "IMAX (maximum inhibition)", "setting": "[1]", "result": 100, "unit": "%"}, {"measurement": "% Protected", "setting": "[3]; water, 10 mg/kg", "result": 75, "unit": "%"}]}
{"smiles": "C[C@]12CC[C@@H](O)C[C@@H]1CC[C@@H]1[C@@H]2CC[C@]2(C)[C@@H](OCCO)CC[C@@H]12", "note": "[17β-(2-Hydroxyethoxy)-3α-hydroxy-5α-androstane]", "values": [{"measurement": "IC50", "setting": "[1]", "result": 534, "unit": "nM"}, {"measurement": "IMAX (maximum inhibition)", "setting": "[1]", "result": 99, "unit": "%"}, {"measurement": "melting point", "result": "181 to 183", "unit": "°C"}]}
{"smiles": "C=C[C@@]1(O)CC[C@@]2(C)[C@@H](CC[C@@H]3[C@@H]2CC[C@]2(C)[C@@H](OC)CC[C@@H]32)C1", "note": "[3β-Ethenyl-3α-hydroxy-17β-methoxy-5α-androstane]", "values": [{"measurement": "Plus-Maze (% Control), time spent on the open-arms", "setting": "[2]; IP, 50% hpbcd, 10 mg/kg", "result": 127, "unit": "% Control"}, {"measurement": "IC50", "setting": "[1]", "result": 133, "unit": "nM"}, {"measurement": "IMAX (maximum inhibition)", "setting": "[1]", "result": 104, "unit": "%"}]}
{"smiles": "C[C@@]1(O)CC[C@@]2(C)[C@@H](CC[C@@H]3[C@@H]2CC[C@]2(C)[C@@H](C(=O)COc4ccc([N+](=O)[O-])cc4)CC[C@@H]32)C1", "values": [{"measurement": "melting point", "result": "169 to 172", "unit": "°C"}]}
{"smiles": "C[C@]12CC[C@@H](O)C[C@H]1CC[C@@H]1[C@@H]2CC[C@]2(C)[C@@H](C(=O)CSc3ccncc3)CC[C@@H]12", "note": "[3α-hydroxy-21-(pyrid-4-ylthio)-5β-pregnan-20-one]", "values": [{"measurement": "Plus-Maze (% Control), time spent on the open-arms", "setting": "[2]; IP, 50% hpbcd, 10 mg/kg", "result": 151, "unit": "% Control"}, {"measurement": "IC50", "setting": "[1]", "result": 59, "unit": "nM"}, {"measurement": "IMAX (maximum inhibition)", "setting": "[1]", "result": 74, "unit": "%"}, {"measurement": "% Protected", "setting": "[3]; [4]", "result": 75, "unit": "%"}]}
